According to patent publication US8653233B2, “Compositions and methods for preventing or treating cancer” (University of Nebraska Medical Center, priority 2003, dated 2014):
Where no end group is shown, it is not given here.

Tested on: Panc02.MUC1 tumor cells
Test: MUC1 cytoplasmic tail peptide vaccination and Panc02.MUC1 tumor challenge

“CQCRRKNYGQLDIFPARDTYHPMSEYPTYH (cysteine pairing not given here) [SEQ ID NO:47]” was tested, and the survival (MUC1.Tg mice, three s.c. vaccinations at seven day intervals, Panc02.MUC1 challenge 10 days after final, vs control peptide or nonvaccinated, p<0.05) was “significant increase in survival” and the autoimmunity in organs (necropsy and histology, vaccinated MUC1.Tg mice challenged with Panc02.MUC1) was “no evidence of autoimmunity”.
